Patent US20130289119A1, “FORMULATION COMPRISING ARGININE, USE AND PREPARATION THEREOF” (OSPEDALE SAN RAFFAELE S.R.L., priority 2010, published 2013)

Method: In the present invention, the bio-availability and the vascular and metabolic effect of an oral administration of L-arginine (6.6 g) contained in the formulation of the invention (6 biscuits) compared either to the same food preparation (6 biscuits) prepared without the addition of L-arginine or to 6.6 g of powdered L-arginine were evaluated in healthy subjects.
Seven healthy subjects (2M/5F) participated in the study.
A complete medical history and a physical examination including height, weight, waist and hip circumferences and blood pressure measurements were taken for each subject. It was asked to all subjects to follow a 2000 kcal/die standard diet, according to LARN (Livelli di Assunzione Giornalieri Raccomandati di Nutrienti per la Popolazione Italiana) recommendations and to complete a 3 day food diary (two working days and one holiday day) before every test to obtain accurate information on short-term food intake. Food diaries were elaborated with a dedicated software to decode foods (Nutritionist Pro 2.5, Axial System, Stafford, Tex.), modified introducing the L-arginine contents, obtained from INRAN and USDA database, in more than 700 different foods items.
The portion of 6 biscuits further contained a total amount of 21.9 g of carbohydrates (17.9 g of starch and 4.0 g of sugars), 3.6 g of proteins, 7.5 g of fats and 4.3 g of fibers. A fixed amount of 250 ml of natural water was taken with the food preparation. […] A fixed amount of 250 ml of natural water was taken with the food preparation. • The third test consisted in the oral administration of 6.6 g of powdered L-arginine diluted in 250 ml of natural water. The Study Design is represented in FIG. 2. After an overnight fast, a 20-gauge plastic cannula (Abbocath T; Abbocath, Ireland LTD, Sling, Ireland) was inserted in a large antecubital vein for intermittent sampling. Samples for the evaluation of glucose, insulin, NOx and L-arginine levels were evaluated at 0, 30, 60, 90, 120, 180 and 240 minutes. c-GMP levels were evaluated at 0, 60, 120, 180 and 240 minutes.
Basal blood pressure was taken in supine position after 10 min of rest, and the mean of two measurements was used as the value, after that blood pressure was also taken at time 0, 120, 180 and 240 minutes. Forearm blood flow (FBF) was measured by strain-gauge venous occlusion plethysmography. Before any measurement was taken, the hand circulation was occluded using a wrist cuff inflated to 240 mmHg. Baseline blood flow was calculated as the mean of at least three values. Reactive hyperaemia (endothelium-dependent vasodilation) was measured after the release of a 5-min arterial occlusion, produced by inflating a standard sphygmomanometer cuff on the upper arm to 100 mmHg above systolic blood pressure (SBP). These measurement were performed at basal and every 60 min until the end of the study. Peripheral resistance was calculated as a ratio between mean blood pressure and the FBF.
Glucose levels were measured with spectrophotometric methods adapted to Cobas MIRA using commercial kits (ABX, Montpellier, France). Insulin and proinsulin levels were assayed with ELISA kits (Insulin ELISA, Mercodia, Uppsala, Sweden and Proinsulin ELISA, DRG, Marburg, Germany). NOx levels were evaluated through the measurement of metabolic end products, i.e., nitrite and nitrate, using enzymatic catalysis coupled with Griess reaction. c-GMP levels were measured with radioimmunoassay kits (NEN Life Science Products, Boston, Mass., USA). L-Arginine were extracted from plasma samples by cation-exchange Strata SCX 100-mg columns (Phenomenex) and assayed by high-performance liquid chromatography.

[1] = healthy subjects, oral 6.6 g L-arginine

## N=C(N)NCCC[C@H](N)C(=O)O [powdered L-Arginine, L-arginine]
both, human, in vivo, po
  Incremental area under the curve for L-Arginine (ΔAUC L-Arginine): 15050 ± 1353 µmol/L
Healthy subjects, forearm plethysmography
  Percentage incremental increase of post-ischemic blood flow vs food preparation not containing L-Arginine: significantly (p<0.02) increased
[1]
  cGMP plasma levels vs food preparation not containing L-Arginine: significantly (p<0.03) higher
  nitric oxide (NOx) plasma levels vs food preparation not containing L-Arginine: significantly (p<0.03) higher
  ΔAUC NOx vs food product not containing L-Arginine: significantly (p<0.04) increased
  ΔAUC cGMP vs food product not containing L-Arginine: significantly (p<0.04) increased
